Results on eight compounds are retold here after ChEMBL document CHEMBL1201862, “PubChem BioAssay data set” (2004).

Active and inactive are the calls of the source.

Experiment [1] can be described thus: microbe, parasite or virus in culture. The format is functional. Conditions: Mycobacterium tuberculosis.
The target of experiment [2] is Aryl hydrocarbon receptor (Homo sapiens, UniProt P35869). Kind of experiment: Luminescence-based cell-based high throughput dose response assay for activators of the Aryl Hydrocarbon Receptor (AHR). [Related pubchem assays: 2796 (Primary screen (AHR activators in singlicate)), 2845 (Confirmation screen (AHR activators in triplicate)), 434939 (Counterscreen (PXR activators in triplicate)), 2804 (Summary (AHR activators))]. The format is ADME.

The nature of experiment [3]: THP-1 cell cytotoxicity, dose response, cytotoxicity control for non-replicating M. tuberculosis project (AID 489025). The format is functional.
A short description of experiment [4]: Vero E6 cell cytotoxicity, dose response, cytotoxicity control for non-replicating M. tuberculosis project, secondary assay (AID 492998). The format is functional, VeroE6. The following applies: Vero C1008.
The next experiment in a line: cells. The format is functional.
For experiment [5], the target named is Neuropeptide Y receptor type 2 (Homo sapiens, UniProt P49146). Description: IC50 for human NPY-Y2 blockade – cell-based, counter-screen for NPY-Y1 antagonist project, dose response (AID 1278). It is filed as functional.
The target in experiment [6] is Ubiquitin carboxyl-terminal hydrolase BAP1 (Homo sapiens, UniProt Q92560). Kind of experiment: inhibition of BAP1 ubiquitin hydrolase activity – biochemical, dose response (AID 714). The format is functional.
The next experiment concerns the target T1, Estrogen receptor (Homo sapiens, UniProt P03372).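 Further: potency for inhibiting coactivator peptide recruitment to the receptor.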
T1 sequence (P03372 whole entry): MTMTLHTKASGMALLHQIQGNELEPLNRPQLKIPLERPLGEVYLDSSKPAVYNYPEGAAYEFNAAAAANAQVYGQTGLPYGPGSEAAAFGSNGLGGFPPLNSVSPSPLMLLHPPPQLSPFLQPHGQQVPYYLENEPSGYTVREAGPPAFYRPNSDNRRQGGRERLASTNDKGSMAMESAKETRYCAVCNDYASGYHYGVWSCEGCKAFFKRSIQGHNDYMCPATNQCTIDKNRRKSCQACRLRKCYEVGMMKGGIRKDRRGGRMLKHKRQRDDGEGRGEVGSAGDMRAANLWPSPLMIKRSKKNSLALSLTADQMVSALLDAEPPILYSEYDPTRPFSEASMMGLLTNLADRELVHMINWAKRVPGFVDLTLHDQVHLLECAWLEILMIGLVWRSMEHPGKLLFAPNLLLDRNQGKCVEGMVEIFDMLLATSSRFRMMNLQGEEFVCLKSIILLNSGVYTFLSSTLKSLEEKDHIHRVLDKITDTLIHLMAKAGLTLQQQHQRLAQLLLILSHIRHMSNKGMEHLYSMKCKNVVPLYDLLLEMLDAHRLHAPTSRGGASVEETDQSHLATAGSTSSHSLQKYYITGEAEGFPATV

The next experiment deals with Phospholipase D2 (Homo sapiens, UniProt O14939). Kind of experiment: PLD2 Cellular Concentration Response Study. It is filed as functional.
The next experiment addresses Phospholipase D1 (Homo sapiens, UniProt Q13393). Description: PLD1 Cellular Concentration Response Study. It is filed as functional.
The nature of experiment [7]: M. tuberculosis growth inhibition, HTS (AID 449762). It is filed as functional.
The target of experiment [8] is Diphosphomevalonate decarboxylase (Streptococcus pneumoniae serotype 2 (strain D39 / NCTC 7466), UniProt Q9FD53). Kind of experiment: diphosphomevalonate decarboxylase inhibitor confirmation – biochemical, cuvette format, coupled NADH fluorescence (AID 1028). It is filed as functional.
For experiment [9], the target named is G-protein coupled receptor 183 (Homo sapiens, UniProt P32249). Description: SAR confirmation of small molecule antagonists of the EBI2 receptor via a luminescent beta-arrestin assa. It is filed as functional.
The target in experiment [10] is Peroxisome proliferator-activated receptor gamma/Nuclear receptor coactivator 1 (Homo sapiens, UniProt P37231). Description: TR-FRET dose response biochemical High Throughput Screening assay for agonists of the steroid receptor coactivator 1 (SRC-1) recruitment by the peroxisome proliferator-activated receptor gamma (PPAR gamma): non-selective agonists. [Related pubchem assays (depositor defined):AID1300, AID1808, AID504735, AID631]. It is filed as protein assay.

The target in experiment [11] is Peroxisome proliferator-activated receptor gamma/Nuclear receptor coactivator 3 (Homo sapiens, UniProt P37231). Description: TR-FRET dose response biochemical High Throughput Screening assay for agonists of the steroid receptor coactivator 3 (SRC-3) recruitment by the peroxisome proliferator-activated receptor gamma (PPAR gamma): non-selective agonists. [Related pubchem assays: 1301 (Confirmation screen.), 1048 (Primary screen.)]. It is filed as functional. A general note: TR-FRET usually uses a lanthanide donor and a delayed reading to cut background.

Experiment [12] deals with Peroxisome proliferator-activated receptor gamma/Nuclear receptor coactivator 2 (Homo sapiens, UniProt P37231). Description: TR-FRET dose response biochemical High Throughput Screening assay for agonists of the steroid receptor coactivator 2 (SRC-2) recruitment by the peroxisome proliferator-activated receptor gamma (PPAR gamma): non-selective agonists. [Related pubchem assays: 1297, 1032 ]. It is filed as functional.

For the next experiment, the target named is Nonstructural protein 1 (Influenza A virus, UniProt Q194T2). It is filed as functional, Influenza A virus (A/California/07/2009(H1N1)).
Experiment [13] addresses T2, Heat shock factor protein 1 (Mus musculus, UniProt P38532).
T2 sequence (P38532 whole entry): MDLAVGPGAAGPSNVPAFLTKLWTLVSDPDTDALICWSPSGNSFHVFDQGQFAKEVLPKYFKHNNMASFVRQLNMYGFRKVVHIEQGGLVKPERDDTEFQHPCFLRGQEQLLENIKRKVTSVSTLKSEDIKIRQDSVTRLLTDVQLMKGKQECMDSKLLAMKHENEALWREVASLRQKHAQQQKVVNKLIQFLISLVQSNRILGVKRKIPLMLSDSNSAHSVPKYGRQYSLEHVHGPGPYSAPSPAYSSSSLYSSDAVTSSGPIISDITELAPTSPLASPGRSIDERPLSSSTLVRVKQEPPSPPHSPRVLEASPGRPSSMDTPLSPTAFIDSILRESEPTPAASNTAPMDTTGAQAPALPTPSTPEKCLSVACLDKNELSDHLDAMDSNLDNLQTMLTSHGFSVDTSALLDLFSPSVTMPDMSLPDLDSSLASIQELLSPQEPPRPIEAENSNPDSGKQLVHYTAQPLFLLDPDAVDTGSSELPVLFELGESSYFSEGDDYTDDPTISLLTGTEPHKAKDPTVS
Description: enhancement of HSF1-driven luciferase signal – cell-based, NIH3T3, luminescence, dose retest, confirmation (AID 435004).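 Further: stress induced by proteasome inhibitor MG132 added 30 min after compound; luciferase reporter driven by HSF1 response element in NIH3T3 cells; actives raise luminescence as potentiators of the MG132 stress response.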 It is filed as functional.

The target of experiment [14] is SWI/SNF-related matrix-associated actin-dependent regulator of chromatin subfamily A member 2 (Homo sapiens, UniProt P51531). Kind of experiment: Luminescence-based cell-based high throughput dose response assay to identify activators of the function of SWI/SNF related, matrix associated, actin dependent regulator of chromatin, subfamily a, member 2 (SMARCA2, BRM). It is filed as functional.

Experiment [15] can be described thus: Counterscreen for activators of the function of SWI/SNF related, matrix associated, actin dependent regulator of chromatin, subfamily a, member 2 (SMARCA2, BRM): Luminescence-based cell-based high throughput dose response assay to identify non-selective compounds using the VP16 reporter assay. It is filed as functional. A general note: The purpose of a counterscreen is to sort out artefacts and off-target activity.

For experiment [16], the target named is T3, Fibrinogen beta chain (Homo sapiens, UniProt P02675). Kind of experiment: Fluorescence polarization-based biochemical high throughput dose response assay to identify inhibitors that disrupt the binding of a cyclic peptide (Tn6) to the fibrin proteolytic product D-Dimer and fragment E complex [DD(E )]. In general terms: In fluorescence polarisation assays a small probe gives low polarisation when free and higher when bound to something large.

The target in experiment [17] is T3, Fibrinogen beta chain. Description: Fluorescence polarization-based biochemical high throughput dose response assay to identify inhibitors that disrupt the binding of a cyclic peptide (Tn7) to the fibrin proteolytic product D-Dimer and fragment E complex [DD(E )].

T3 sequence (P02675 whole entry, the tested form may be a part): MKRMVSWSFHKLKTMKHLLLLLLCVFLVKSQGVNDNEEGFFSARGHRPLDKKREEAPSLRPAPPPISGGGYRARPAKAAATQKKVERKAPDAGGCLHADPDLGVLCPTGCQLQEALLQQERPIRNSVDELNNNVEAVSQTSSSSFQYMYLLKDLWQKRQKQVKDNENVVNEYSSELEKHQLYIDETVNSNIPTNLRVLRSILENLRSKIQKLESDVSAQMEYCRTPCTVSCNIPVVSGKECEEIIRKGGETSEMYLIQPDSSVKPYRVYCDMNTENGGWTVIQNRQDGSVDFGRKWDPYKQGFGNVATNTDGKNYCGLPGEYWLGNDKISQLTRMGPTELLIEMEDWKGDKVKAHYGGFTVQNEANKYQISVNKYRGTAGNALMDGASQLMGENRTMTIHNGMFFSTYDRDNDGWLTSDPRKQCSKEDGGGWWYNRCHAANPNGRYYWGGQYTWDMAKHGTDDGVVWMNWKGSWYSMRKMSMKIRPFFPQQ
Sequence of Aryl hydrocarbon receptor (P35869 whole entry): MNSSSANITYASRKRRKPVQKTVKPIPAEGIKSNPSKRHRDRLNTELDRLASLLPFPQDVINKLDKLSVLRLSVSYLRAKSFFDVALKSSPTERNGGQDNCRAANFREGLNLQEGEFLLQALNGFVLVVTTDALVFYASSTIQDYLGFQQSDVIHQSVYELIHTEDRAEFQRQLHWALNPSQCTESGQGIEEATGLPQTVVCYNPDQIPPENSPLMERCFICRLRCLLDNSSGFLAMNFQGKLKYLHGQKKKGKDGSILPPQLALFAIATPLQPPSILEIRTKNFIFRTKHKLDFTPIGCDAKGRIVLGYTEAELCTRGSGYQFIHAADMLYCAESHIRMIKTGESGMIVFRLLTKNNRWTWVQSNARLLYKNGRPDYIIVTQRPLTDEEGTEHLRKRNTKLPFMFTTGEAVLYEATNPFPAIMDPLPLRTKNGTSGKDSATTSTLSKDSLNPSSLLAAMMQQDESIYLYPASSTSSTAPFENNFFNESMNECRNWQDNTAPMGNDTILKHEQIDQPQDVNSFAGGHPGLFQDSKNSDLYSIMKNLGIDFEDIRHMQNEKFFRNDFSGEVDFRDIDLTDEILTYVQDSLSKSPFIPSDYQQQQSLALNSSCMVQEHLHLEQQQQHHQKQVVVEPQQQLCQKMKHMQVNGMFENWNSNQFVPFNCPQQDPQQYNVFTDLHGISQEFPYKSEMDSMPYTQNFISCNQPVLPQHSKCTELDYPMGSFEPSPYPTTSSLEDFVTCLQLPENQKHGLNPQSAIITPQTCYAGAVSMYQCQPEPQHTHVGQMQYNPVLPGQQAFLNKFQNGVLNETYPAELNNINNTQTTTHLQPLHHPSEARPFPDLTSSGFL
Sequence of Phospholipase D1 (Q13393 whole entry): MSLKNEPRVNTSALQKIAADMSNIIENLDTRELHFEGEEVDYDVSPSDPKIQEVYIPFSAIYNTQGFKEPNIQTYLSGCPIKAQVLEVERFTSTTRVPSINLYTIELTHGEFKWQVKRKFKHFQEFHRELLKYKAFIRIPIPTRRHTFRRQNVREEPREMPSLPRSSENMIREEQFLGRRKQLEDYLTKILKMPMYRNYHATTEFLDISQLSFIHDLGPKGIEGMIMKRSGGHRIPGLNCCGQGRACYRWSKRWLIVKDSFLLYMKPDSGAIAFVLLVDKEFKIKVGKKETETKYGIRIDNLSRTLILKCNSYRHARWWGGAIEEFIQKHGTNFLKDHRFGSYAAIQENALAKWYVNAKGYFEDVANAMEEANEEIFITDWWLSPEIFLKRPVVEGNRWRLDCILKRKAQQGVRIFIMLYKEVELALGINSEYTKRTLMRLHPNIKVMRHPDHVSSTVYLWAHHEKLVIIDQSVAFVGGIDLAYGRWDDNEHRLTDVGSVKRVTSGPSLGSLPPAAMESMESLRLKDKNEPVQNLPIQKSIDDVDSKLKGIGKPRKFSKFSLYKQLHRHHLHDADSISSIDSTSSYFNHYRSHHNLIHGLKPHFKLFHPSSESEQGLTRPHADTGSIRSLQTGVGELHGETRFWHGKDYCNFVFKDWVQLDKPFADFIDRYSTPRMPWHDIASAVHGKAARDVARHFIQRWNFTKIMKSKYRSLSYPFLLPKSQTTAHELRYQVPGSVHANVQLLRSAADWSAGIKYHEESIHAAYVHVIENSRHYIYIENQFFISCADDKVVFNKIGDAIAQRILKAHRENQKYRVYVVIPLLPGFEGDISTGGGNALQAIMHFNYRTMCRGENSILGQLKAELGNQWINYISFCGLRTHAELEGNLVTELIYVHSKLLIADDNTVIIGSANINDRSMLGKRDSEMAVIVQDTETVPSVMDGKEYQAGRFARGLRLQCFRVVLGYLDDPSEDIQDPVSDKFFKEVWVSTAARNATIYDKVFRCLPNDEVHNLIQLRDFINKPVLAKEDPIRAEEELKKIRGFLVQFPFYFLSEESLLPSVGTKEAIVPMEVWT
Sequence of G-protein coupled receptor 183 (P32249 whole entry): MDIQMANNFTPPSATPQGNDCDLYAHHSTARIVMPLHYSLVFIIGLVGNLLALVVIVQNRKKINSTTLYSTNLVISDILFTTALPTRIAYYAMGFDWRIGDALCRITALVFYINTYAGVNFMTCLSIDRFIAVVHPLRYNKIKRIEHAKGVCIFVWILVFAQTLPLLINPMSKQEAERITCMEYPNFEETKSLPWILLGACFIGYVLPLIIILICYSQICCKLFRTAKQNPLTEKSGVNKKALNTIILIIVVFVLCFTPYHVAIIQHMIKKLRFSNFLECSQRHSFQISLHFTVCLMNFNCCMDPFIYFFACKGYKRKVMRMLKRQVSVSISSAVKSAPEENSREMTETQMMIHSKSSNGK
Sequence of Peroxisome proliferator-activated receptor gamma/Nuclear receptor coactivator 2 (P37231 whole entry): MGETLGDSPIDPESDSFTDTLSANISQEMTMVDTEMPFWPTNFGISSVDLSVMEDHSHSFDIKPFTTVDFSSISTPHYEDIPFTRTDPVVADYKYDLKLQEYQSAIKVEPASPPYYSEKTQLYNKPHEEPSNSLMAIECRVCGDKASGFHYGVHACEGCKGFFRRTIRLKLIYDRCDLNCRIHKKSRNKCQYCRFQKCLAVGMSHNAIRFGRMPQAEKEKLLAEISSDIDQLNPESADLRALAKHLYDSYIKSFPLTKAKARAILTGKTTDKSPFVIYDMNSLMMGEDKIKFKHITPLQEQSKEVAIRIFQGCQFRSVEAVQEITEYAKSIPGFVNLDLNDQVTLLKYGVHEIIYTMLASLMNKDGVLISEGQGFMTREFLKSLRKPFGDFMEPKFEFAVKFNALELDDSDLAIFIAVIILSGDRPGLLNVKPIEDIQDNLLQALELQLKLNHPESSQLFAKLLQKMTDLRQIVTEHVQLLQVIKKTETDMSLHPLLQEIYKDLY
Sequence of Peroxisome proliferator-activated receptor gamma/Nuclear receptor coactivator 2 (Q15596 whole entry, further chain): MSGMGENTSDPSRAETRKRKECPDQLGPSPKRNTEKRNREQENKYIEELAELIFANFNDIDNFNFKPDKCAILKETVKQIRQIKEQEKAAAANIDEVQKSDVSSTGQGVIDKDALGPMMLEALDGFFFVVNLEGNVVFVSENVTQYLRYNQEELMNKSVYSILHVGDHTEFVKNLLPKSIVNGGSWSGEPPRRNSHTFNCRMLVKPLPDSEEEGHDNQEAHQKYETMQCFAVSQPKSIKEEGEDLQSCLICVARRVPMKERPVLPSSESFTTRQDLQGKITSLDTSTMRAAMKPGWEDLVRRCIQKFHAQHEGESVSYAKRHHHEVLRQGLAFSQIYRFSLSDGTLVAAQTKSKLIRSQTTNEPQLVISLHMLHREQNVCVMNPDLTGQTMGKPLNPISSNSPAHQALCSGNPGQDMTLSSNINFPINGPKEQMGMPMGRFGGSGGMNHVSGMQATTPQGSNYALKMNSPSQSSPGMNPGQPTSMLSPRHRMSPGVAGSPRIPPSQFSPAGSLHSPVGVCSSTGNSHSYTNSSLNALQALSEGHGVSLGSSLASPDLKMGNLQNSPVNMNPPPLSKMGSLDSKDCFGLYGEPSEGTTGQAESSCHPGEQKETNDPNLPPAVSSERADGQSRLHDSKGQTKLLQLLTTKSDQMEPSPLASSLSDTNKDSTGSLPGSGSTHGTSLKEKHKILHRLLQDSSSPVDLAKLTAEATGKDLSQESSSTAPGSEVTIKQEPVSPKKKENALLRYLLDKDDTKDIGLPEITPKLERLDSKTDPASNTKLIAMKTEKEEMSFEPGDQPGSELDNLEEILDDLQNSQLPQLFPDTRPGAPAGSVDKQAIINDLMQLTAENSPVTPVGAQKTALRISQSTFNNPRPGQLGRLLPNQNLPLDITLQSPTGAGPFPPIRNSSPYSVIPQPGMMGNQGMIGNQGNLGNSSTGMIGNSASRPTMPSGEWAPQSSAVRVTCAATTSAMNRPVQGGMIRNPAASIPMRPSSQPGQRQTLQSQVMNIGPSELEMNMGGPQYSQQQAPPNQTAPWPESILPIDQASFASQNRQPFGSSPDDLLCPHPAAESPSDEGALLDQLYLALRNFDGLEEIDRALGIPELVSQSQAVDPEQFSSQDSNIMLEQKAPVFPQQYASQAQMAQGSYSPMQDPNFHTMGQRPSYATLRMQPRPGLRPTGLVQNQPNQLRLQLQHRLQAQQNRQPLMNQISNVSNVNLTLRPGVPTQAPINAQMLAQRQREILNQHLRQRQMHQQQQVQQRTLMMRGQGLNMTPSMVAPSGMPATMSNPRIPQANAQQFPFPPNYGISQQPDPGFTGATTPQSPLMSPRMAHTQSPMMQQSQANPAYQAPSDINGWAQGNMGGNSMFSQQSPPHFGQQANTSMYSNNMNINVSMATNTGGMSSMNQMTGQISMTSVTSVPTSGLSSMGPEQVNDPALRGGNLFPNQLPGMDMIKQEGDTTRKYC
Sequence of Nonstructural protein 1 (Q194T2 whole entry): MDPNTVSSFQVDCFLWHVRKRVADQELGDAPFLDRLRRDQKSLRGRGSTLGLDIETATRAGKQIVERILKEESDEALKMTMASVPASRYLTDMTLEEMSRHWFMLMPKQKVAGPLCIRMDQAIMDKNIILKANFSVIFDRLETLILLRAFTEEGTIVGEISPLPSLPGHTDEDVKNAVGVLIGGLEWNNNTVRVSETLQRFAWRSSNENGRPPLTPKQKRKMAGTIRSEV

As for `O=[N+]([O-])c1cc(-c2nc(-c3ccncc3)no2)cc([N+](=O)[O-])c1`, the CC50 was > 40 µM (active) in experiment [1], 37.5 µM (active) in experiment [3] and > 20 µM (active) in [4]. The EC50 (usually the concentration needed to bring the measured effect to its halfway point) in experiment [2] was 2.67 µM (active). Further, in the experiment “cells”, the IC50 (in general, the midpoint of a concentration-inhibition curve) was 3.13 µM (active).
`CC(C)CC(c1nnnn1C1CCCC1)N1CCN(c2ccccc2F)CC1` (configuration not stated): the IC50 in [5] is given as 24.4 µM (not active).
Regarding `Cc1sc(NC(=O)CSc2nnc(-c3ccc(F)cc3)o2)c(C#N)c1C`, the figures for the IC50 (in [6]; on Estrogen receptor) were 10.5 µM (active) and > 50 µM (not active), respectively.
On to `O=C(NCCN1CCC2(CC1)C(=O)NCN2C(=O)c1cccc(F)c1)c1ccc2ccccc2c1`, for which the figures for the IC50 at Phospholipase D2 and on Phospholipase D1 were 2.75 µM (active) and 8.76 µM (active), respectively.
Regarding `Cc1cc(/C=C(/C#N)c2cccc(F)c2)c(C)n1-c1cccnc1`, the 50% inhibitory concentration (IC50) in experiment [7] was > 100 µM (active).
Regarding `O=C(NCc1ccco1)c1cccc(-n2sc3ccccc3c2=O)c1`, in experiment [8], the half-inhibitory concentration (IC50) was 10.5 µM (active).
In the case of `COc1ccc(S(=O)(=O)N2CCN(C(=O)/C=C/c3ccc(F)cc3)CC2)cc1`, in [9], the IC50 is 0.0121 µM (active).
Turning to `COc1ccc(N)c2c1C(=O)c1ccccc1C2=O`, the EC50 was 20.2 µM (inactive) in experiment [10]; 119 µM (not active) in experiment [11]; 10.7 µM (not active) in experiment [12]; > 260 µM (inactive) in experiment [13]; > 91.1 µM (inactive) in experiment [14]; > 91.1 µM (inactive) in [15]. The figures for the IC50 on Nonstructural protein 1, at Fibrinogen beta chain [16] and on Fibrinogen beta chain [17] were 31 µM (active), 4.98 µM (active) and > 83.2 µM (inactive), respectively.
